Results: PubChem BioAssay (NCI)
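Method: 48-hour compound exposure of cells in 96-well plates, five concentrations, linear interpolation of endpoints. TGI is the concentration that stops growth completely.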

Legend:
Test in all cases: NCI anticancer screen, dose series, 48 h
OVCAR-5 ovarian = system: OVCAR-5 ovarian
COLO 205 colon = system: COLO 205 colon
OVCAR-4 ovarian = system: OVCAR-4 ovarian
786-0 renal = system: 786-0 renal
KM12 colon = system: KM12 colon
UACC-62 melanoma = system: UACC-62 melanoma
SF-268 CNS = system: SF-268 CNS
LOX IMVI melanoma = system: LOX IMVI melanoma
NCI-H522 lung = system: NCI-H522 lung
T-47D breast = system: T-47D breast
U251 CNS = system: U251 CNS
HCC-2998 colon = system: HCC-2998 colon
A549 NSCLC = system: A549 NSCLC
NCI-H226 lung = system: NCI-H226 lung
OVCAR-3 ovarian = system: OVCAR-3 ovarian
MDA-MB-435 = system: MDA-MB-435
RXF 393 renal = system: RXF 393 renal
K-562 leukemia = system: K-562 leukemia
BT-549 breast = system: BT-549 breast
MDA-MB-231 breast = system: MDA-MB-231 breast
TK-10 renal = system: TK-10 renal
SK-MEL-2 melanoma = system: SK-MEL-2 melanoma
HL-60(TB) leukemia = system: HL-60(TB) leukemia
NCI-H460 lung = system: NCI-H460 lung
MCF7 breast = system: MCF7 breast
MALME-3M melanoma = system: MALME-3M melanoma
UO-31 renal = system: UO-31 renal
OVCAR-8 ovarian = system: OVCAR-8 ovarian
SNB-75 CNS = system: SNB-75 CNS
HS 578T breast = system: HS 578T breast
IGROV1 ovarian = system: IGROV1 ovarian
MDA-N = system: MDA-N
SR leukemia = system: SR leukemia
SN12C renal = system: SN12C renal
HT29 colon = system: HT29 colon
HOP-92 NSCLC = system: HOP-92 NSCLC
ACHN renal = system: ACHN renal
DU-145 prostate = system: DU-145 prostate
CCRF-CEM leukemia = system: CCRF-CEM leukemia
MOLT-4 leukemia = system: MOLT-4 leukemia
SK-MEL-5 melanoma = system: SK-MEL-5 melanoma
M14 melanoma = system: M14 melanoma
SNB-19 CNS = system: SNB-19 CNS
SF-295 CNS = system: SF-295 CNS
SW-620 colon = system: SW-620 colon
SK-MEL-28 melanoma = system: SK-MEL-28 melanoma
UACC-257 melanoma = system: UACC-257 melanoma
NCI-H23 lung = system: NCI-H23 lung
RPMI-8226 leukemia = system: RPMI-8226 leukemia
HCT-15 colon = system: HCT-15 colon
A498 renal = system: A498 renal
SF-539 CNS = system: SF-539 CNS
SK-OV-3 ovarian = system: SK-OV-3 ovarian
HCT-116 colon = system: HCT-116 colon
HOP-62 NSCLC = system: HOP-62 NSCLC
CAKI-1 renal = system: CAKI-1 renal
EKVX NSCLC = system: EKVX NSCLC
PC-3 prostate = system: PC-3 prostate
NCI/ADR-RES ovarian = system: NCI/ADR-RES ovarian

Measured: TGI

CCOC(=O)c1c(N)n(-c2ccccc2)c(=S)n(-c2ccccc2)c1=O
not listed: A498 renal | SF-539 CNS | SK-OV-3 ovarian | HCT-116 colon | HOP-62 NSCLC | CAKI-1 renal | EKVX NSCLC | PC-3 prostate | NCI/ADR-RES ovarian
> 100 µM: all other assays above

O=C(O)/C=C/C(=O)Nc1ncn[nH]1
not listed: K-562 leukemia | HL-60(TB) leukemia | MALME-3M melanoma | SR leukemia | CCRF-CEM leukemia
> 100 µM: all other assays above
